# Experimental data published in the supplement of paper PMC10307832.
# Tests used:
# Experiment in all cases: relative viability (nuclei count vs DMSO), 5 days (fraction); higher = more cells survive
# [1] = compound: CN(NC(=O)CC(=O)NN(C)C(=S)c1ccccc1)C(=S)c1ccccc1 [Elesclomol] + C[C@@H](Oc1cc(-c2cnn(C3CCNCC3)c2)cnc1N)c1c(Cl)ccc(F)c1Cl [Crizotinib] (partner 1 µM)
# Procedure, shortened: (§1)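 Relative viability equals treated-well nuclei counts divided by vehicle-well nuclei counts. Counts came from 4× images of lung cancer cell lines grown in 1536-well plates for 5 days after pin-tool dosing on the day after seeding. Dosing used one drug alone or a fixed anchor-drug dose plus five library-drug doses (not always all listed) in √10 steps, and values are medians of duplicate plates.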
# [2] = compound: CN(NC(=O)CC(=O)NN(C)C(=S)c1ccccc1)C(=S)c1ccccc1 [Elesclomol] + CS(=O)(=O)N1CCN(Cc2cc3nc(-c4cccc5[nH]ncc45)nc(N4CCOCC4)c3s2)CC1 [Pictilisib] (partner 1 µM)
# Procedure, shortened: as §1
# [3] = compound: CN(NC(=O)CC(=O)NN(C)C(=S)c1ccccc1)C(=S)c1ccccc1 [Elesclomol] + Cc1nc(NC(=O)N2CCC[C@H]2C(N)=O)sc1-c1ccnc(C(C)(C)C(F)(F)F)c1 [Alpelisib] (partner 2 µM)
# Procedure, shortened: as §1
# [4] = compound: CN(NC(=O)CC(=O)NN(C)C(=S)c1ccccc1)C(=S)c1ccccc1 [Elesclomol] + O=C(c1cc(Cc2n[nH]c(=O)c3ccccc23)ccc1F)N1CCN(C(=O)C2CC2)CC1 [Olaparib] (partner 8 µM)
# Procedure, shortened: as §1
# [5] = compound: CN(NC(=O)CC(=O)NN(C)C(=S)c1ccccc1)C(=S)c1ccccc1 [Elesclomol] + C[C@]1(O)C[C@@H](c2nc(-c3ccc4ccc(-c5ccccc5)nc4c3)c3c(N)nccn32)C1 [Linsitinib] (partner 1 µM)
# Procedure, shortened: as §1
# [6] = compound: CN(NC(=O)CC(=O)NN(C)C(=S)c1ccccc1)C(=S)c1ccccc1 [Elesclomol] + CS(=O)(=O)CCNCc1ccc(-c2ccc3ncnc(Nc4ccc(OCc5cccc(F)c5)c(Cl)c4)c3c2)o1 [Lapatinib] (partner 2 µM)
# Procedure, shortened: as §1
# [7] = compound: CN(NC(=O)CC(=O)NN(C)C(=S)c1ccccc1)C(=S)c1ccccc1 [Elesclomol] + CC(C)C[C@H](NC(=O)[C@H](Cc1ccccc1)NC(=O)c1cnccn1)B(O)O [Bortezomib] (partner 0.002 µM)
# Procedure, shortened: as §1
# [8] = compound: CN(NC(=O)CC(=O)NN(C)C(=S)c1ccccc1)C(=S)c1ccccc1 [Elesclomol] + COc1cc2c(Oc3ccc(NC(=O)C4(C(=O)Nc5ccc(F)cc5)CC4)cc3F)ccnc2cc1OCCCN1CCOCC1 [Foretinib] (partner 0.25 µM)
# Procedure, shortened: as §1
# [9] = compound: CN(NC(=O)CC(=O)NN(C)C(=S)c1ccccc1)C(=S)c1ccccc1 [Elesclomol] + CC1(C)CCC(c2ccc(Cl)cc2)=C(CN2CCN(c3ccc(C(=O)NS(=O)(=O)c4ccc(N[C@H](CCN5CCOCC5)CSc5ccccc5)c(S(=O)(=O)C(F)(F)F)c4)cc3)CC2)C1 [Navitoclax] (partner 0.5 µM)
# Procedure, shortened: as §1
# [10] = compound: CN(NC(=O)CC(=O)NN(C)C(=S)c1ccccc1)C(=S)c1ccccc1 [Elesclomol]
# Procedure, shortened: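 Viability here means nuclei in treated wells divided by nuclei in vehicle wells, reported as the median across plates. Only plates with control CV below 25% and at least one doubling passed. Lung cancer cell lines in 1536-well plates were exposed to five √10-spaced library-drug doses for 5 days and counted from 4× Hoechst images in MetaXpress.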
# [11] = compound: CN(NC(=O)CC(=O)NN(C)C(=S)c1ccccc1)C(=S)c1ccccc1 [Elesclomol] + CCNC(=O)c1noc(-c2cc(C(C)C)c(O)cc2O)c1-c1ccc(CN2CCOCC2)cc1 [Luminespib] (partner 0.01 µM)
# Procedure, shortened: as §1
# [12] = compound: CN(NC(=O)CC(=O)NN(C)C(=S)c1ccccc1)C(=S)c1ccccc1 [Elesclomol] + N=C(N)NC(=N)NCCc1ccccc1 [Phenformin] (partner 250 µM)
# Procedure, shortened: as §1
# [13] = compound: CN(NC(=O)CC(=O)NN(C)C(=S)c1ccccc1)C(=S)c1ccccc1 [Elesclomol] + Nc1nc2[nH]cc(CCc3ccc(C(=O)N[C@@H](CCC(=O)O)C(=O)O)cc3)c2c(=O)[nH]1 [Pemetrexed] (partner 0.2 µM)
# Procedure, shortened: as §1
# [14] = compound: CN(NC(=O)CC(=O)NN(C)C(=S)c1ccccc1)C(=S)c1ccccc1 [Elesclomol] + COc1cccc2cc(-c3nc([C@H]4CC[C@H](C(=O)O)CC4)n4ncnc(N)c34)[nH]c12 [OSI-027] (partner 0.5 µM)
# Procedure, shortened: as §1
# [15] = compound: CN(NC(=O)CC(=O)NN(C)C(=S)c1ccccc1)C(=S)c1ccccc1 [Elesclomol] + Cc1nc(Nc2ncc(C(=O)Nc3c(C)cccc3Cl)s2)cc(N2CCN(CCO)CC2)n1 [Dasatinib] (partner 0.075 µM)
# Procedure, shortened: as §1
cell line,measurement,setting,value
NCI-H1299,relative viability,[1]; first compound 0.003162 µM,0.613
same,relative viability,[1]; first compound 0.01 µM,0.822
same,relative viability,[1]; first compound 0.03162 µM,0.698
same,relative viability,[1]; first compound 0.1 µM,0.507
same,relative viability,[2]; first compound 0.003162 µM,0.743
same,relative viability,[2]; first compound 0.01 µM,0.171
same,relative viability,[2]; first compound 0.03162 µM,0.134
same,relative viability,[2]; first compound 0.1 µM,0.0529
same,relative viability,[3]; first compound 0.003162 µM,1.08
same,relative viability,[3]; first compound 0.01 µM,1.05
same,relative viability,[3]; first compound 0.03162 µM,0.918
same,relative viability,[3]; first compound 0.1 µM,0.636
same,relative viability,[4]; first compound 0.003162 µM,0.991
same,relative viability,[4]; first compound 0.01 µM,0.574
same,relative viability,[4]; first compound 0.03162 µM,0.401
same,relative viability,[4]; first compound 0.1 µM,0.146
same,relative viability,[5]; first compound 0.003162 µM,0.994
same,relative viability,[5]; first compound 0.01 µM,0.677
same,relative viability,[5]; first compound 0.03162 µM,0.549
same,relative viability,[5]; first compound 0.1 µM,0.145
same,relative viability,[6]; first compound 0.003162 µM,0.947
same,relative viability,[6]; first compound 0.01 µM,0.852
same,relative viability,[6]; first compound 0.03162 µM,0.698
same,relative viability,[6]; first compound 0.1 µM,0.547
same,relative viability,[7]; first compound 0.003162 µM,1.03
same,relative viability,[7]; first compound 0.01 µM,0.921
same,relative viability,[7]; first compound 0.03162 µM,0.834
same,relative viability,[7]; first compound 0.1 µM,0.622
same,relative viability,[8]; first compound 0.003162 µM,1.04
same,relative viability,[8]; first compound 0.01 µM,1.06
same,relative viability,[8]; first compound 0.03162 µM,0.588
same,relative viability,[8]; first compound 0.1 µM,0.333
same,relative viability,[9]; first compound 0.003162 µM,1.05
same,relative viability,[9]; first compound 0.01 µM,0.97
same,relative viability,[9]; first compound 0.03162 µM,0.932
same,relative viability,[9]; first compound 0.1 µM,0.661
same,relative viability,[10]; 0.003162 µM,1.03
same,relative viability,[10]; 0.01 µM,0.733
same,relative viability,[10]; 0.03162 µM,0.709
same,relative viability,[10]; 0.1 µM,0.42
NCI-H1563,relative viability,[1]; first compound 0.003162 µM,0.649
same,relative viability,[1]; first compound 0.01 µM,0.623
same,relative viability,[1]; first compound 0.03162 µM,0.502
same,relative viability,[1]; first compound 0.1 µM,0.453
same,relative viability,[2]; first compound 0.003162 µM,0.656
same,relative viability,[2]; first compound 0.01 µM,0.582
same,relative viability,[2]; first compound 0.03162 µM,0.587
same,relative viability,[2]; first compound 0.1 µM,0.486
same,relative viability,[3]; first compound 0.003162 µM,0.687
same,relative viability,[3]; first compound 0.01 µM,0.613
same,relative viability,[3]; first compound 0.03162 µM,0.537
same,relative viability,[3]; first compound 0.1 µM,0.527
same,relative viability,[11]; first compound 0.003162 µM,0.518
same,relative viability,[11]; first compound 0.01 µM,0.472
same,relative viability,[11]; first compound 0.03162 µM,0.471
same,relative viability,[11]; first compound 0.1 µM,0.432
same,relative viability,[5]; first compound 0.003162 µM,0.817
same,relative viability,[5]; first compound 0.01 µM,0.705
same,relative viability,[5]; first compound 0.03162 µM,0.632
same,relative viability,[5]; first compound 0.1 µM,0.468
same,relative viability,[6]; first compound 0.003162 µM,0.625
same,relative viability,[6]; first compound 0.01 µM,0.562
same,relative viability,[6]; first compound 0.03162 µM,0.601
same,relative viability,[6]; first compound 0.1 µM,0.458
same,relative viability,[12]; first compound 0.003162 µM,0.589
same,relative viability,[12]; first compound 0.01 µM,0.569
same,relative viability,[12]; first compound 0.03162 µM,0.516
same,relative viability,[12]; first compound 0.1 µM,0.479
same,relative viability,[13]; first compound 0.003162 µM,0.741
same,relative viability,[13]; first compound 0.01 µM,0.698
same,relative viability,[13]; first compound 0.03162 µM,0.544
same,relative viability,[13]; first compound 0.1 µM,0.619
same,relative viability,[7]; first compound 0.003162 µM,0.732
same,relative viability,[7]; first compound 0.01 µM,0.62
same,relative viability,[7]; first compound 0.03162 µM,0.457
same,relative viability,[7]; first compound 0.1 µM,0.492
same,relative viability,[14]; first compound 0.003162 µM,0.647
same,relative viability,[14]; first compound 0.01 µM,0.606
same,relative viability,[14]; first compound 0.03162 µM,0.52
same,relative viability,[14]; first compound 0.1 µM,0.459
same,relative viability,[8]; first compound 0.003162 µM,0.727
same,relative viability,[8]; first compound 0.01 µM,0.724
same,relative viability,[8]; first compound 0.03162 µM,0.617
same,relative viability,[8]; first compound 0.1 µM,0.459
same,relative viability,[15]; first compound 0.003162 µM,0.447
same,relative viability,[15]; first compound 0.01 µM,0.476
same,relative viability,[15]; first compound 0.03162 µM,0.413
same,relative viability,[15]; first compound 0.1 µM,0.382
same,relative viability,[10]; 0.003162 µM,0.786
same,relative viability,[10]; 0.01 µM,0.675
same,relative viability,[10]; 0.03162 µM,0.651
same,relative viability,[10]; 0.1 µM,0.542
